In patent US8637079B2, “Solid preparation comprising alogliptin and pioglitazone” (Takeda Pharmaceutical Company Limited, priority 2007, dated 2014):

Assay: Chemical stability on storage: amount of benzoic acid remaining as compound (IA)
Format: physicochemical
Procedure: Compound (IA) (50 mg) of Comparative Example 1, the mixture (99.59 mg) of Comparative Example 2, and tablets of Example 1 and Example 2 were preserved in glass bottles at 40° C., 75% RH with opened cap or at 60° C. with closed cap and the amount of benzoic acid remaining as compound (IA) was measured to evaluate the chemical stability.

residual benzoic acid (40° C., 75% RH, opened bottle, 2 week storage product): 99.2%
residual benzoic acid (60° C., closed bottle, 2 week storage product): 99.0%
residual benzoic acid (Initial): 99.8%
Structure (SMILES): Cn1c(=O)cc(N2CCC[C@@H](N)C2)n(Cc2ccccc2C#N)c1=O [Comparative Example 1, 2-[[6-[(3R)-3-amino-1-piperidinyl]-3,4-dihydro-3-methyl-2,4-dioxo-1(2H)-pyrimidinyl]methyl]-benzonitrile]
